Data as given in US8937089B2, “Synergistic mixtures of anthranilamide invertebrate pest control agents” (priority 2004, dated 2015).

Tested on: beet armyworm (Spodoptera exigua)
Experiment: Test I: control of beet armyworm, spray on tomato plants, excised leaves, % mortality and % feeding at 72 hours
Type: in vivo
Experimental: For evaluating control of beet armyworm (Spodoptera exigua), methomyl was in the liquid formulation as Lannate® LV (29% of active ingredient). Compound 1 was in a water dispersible granules (WDG) formulation with 35% active ingredient. The test compounds were dissolved in water. Enough water was added to make 100 ppm of active ingredient for each compound. Serial dilutions were made to obtain the appropriate concentrations. To obtain the desired mixture concentrations of each compound, twice the desired concentration of each of the two mixture partner compounds were mixed together in equal volumes.
The diluted solutions of the test compounds were sprayed to run-off on three-week-old tomato plants. The plants were placed on a rotating turntable sprayer (10 rpm). Test solutions were applied using a flat fan air-assisted nozzle (Spraying Systems 122440) at 10 psi (69 kPa). After each treated plant had dried, leaves were excised from the treated plant. The leaves were cut into pieces, which were placed singly into 5.5 cm-by-3.5 cm cells of a sixteen-cell plastic tray. Each cell contained a 2.5-cm square of moistened chromatography paper to prevent desiccation. One insect was placed in each cell. There two trays per treatment. […]

## CNC(=O)c1cc(Cl)cc(C)c1NC(=O)c1cc(Br)nn1-c1ncccc1Cl [Compound 1, 3-bromo-N-[4-chloro-2-methyl-6-[(methylamino)carbonyl]phenyl]-1-(3-chloro-2-pyridinyl)-1H-pyrazole-5-carboxamide]
Compound 1 0.022 ppm
  % feeding: 9%
Compound 1 0.041 ppm
  % feeding: 6%
Compound 1 0.163 ppm
  % feeding: 2%
Compound 1 0.209 ppm
  % feeding: 2%
Compound 1 0.30 ppm
  % feeding: 1%
Compound 1 0.60 ppm
  % feeding: 1%
Spodoptera exigua, Compound 1 0.022 ppm, read-out: % mortality (observed)
  mortality at 0.022 ppm: 13%
Spodoptera exigua, Compound 1 0.041 ppm, read-out: % mortality (observed)
  mortality at 0.041 ppm: 44%
Spodoptera exigua, Compound 1 0.076 ppm, read-out: % mortality (observed)
  mortality at […]: 25%
Spodoptera exigua, Compound 1 0.163 ppm, read-out: % mortality (observed)
  mortality at 0.163 ppm: 35%
Spodoptera exigua, Compound 1 0.209 ppm, read-out: % mortality (observed)
  mortality at 0.209 ppm: 47%
Spodoptera exigua, Compound 1 0.30 ppm, read-out: % mortality (observed)
  mortality at 0.3 ppm: 59%
Spodoptera exigua, Compound 1 0.60 ppm, read-out: % mortality (observed)
  mortality at 0.6 ppm: 75%
